For 4 molecules, remaining activity results are on record in article PMC5564600 (Oncotarget, 2017).

Like-named read-outs stand apart in the source and are kept apart here.

Common to all, as to test: biochemical
What all share (type): binding

Assay [1] addresses T1, panel of 442 kinases (Homo sapiens, UniProt P10721, V559D).
T1 construct: purchased Ambit Biosciences (scanMAXX KINOMEscan)
The note with it: kinase KIT(V559D); for remaining activity at 1 µM: read-out: % of control at 1 µM.

In assay [2] the target is T2, panel of 442 kinases (Homo sapiens, UniProt Q9P289).
T2 construct: purchased Ambit Biosciences (scanMAXX KINOMEscan)
T2 sequence (Q9P289 whole entry): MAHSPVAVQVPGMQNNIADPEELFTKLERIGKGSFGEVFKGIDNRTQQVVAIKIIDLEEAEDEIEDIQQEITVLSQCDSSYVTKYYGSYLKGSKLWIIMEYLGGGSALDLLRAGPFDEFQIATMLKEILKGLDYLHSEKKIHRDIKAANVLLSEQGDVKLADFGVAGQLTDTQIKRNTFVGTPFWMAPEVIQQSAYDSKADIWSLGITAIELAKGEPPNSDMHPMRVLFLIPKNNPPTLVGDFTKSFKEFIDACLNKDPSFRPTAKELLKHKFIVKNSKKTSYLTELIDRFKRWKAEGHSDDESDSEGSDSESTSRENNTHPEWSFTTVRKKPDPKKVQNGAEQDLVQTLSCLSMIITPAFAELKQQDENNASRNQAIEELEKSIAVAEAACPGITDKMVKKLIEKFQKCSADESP
To be noted: kinase MST4; for remaining activity at 1 µM: read-out: % of control at 1 µM.

Assay [3] has as its target T3, panel of 442 kinases (Homo sapiens, UniProt P10721, D816V).
T3 construct: purchased Ambit Biosciences (scanMAXX KINOMEscan)
To be noted: kinase KIT(D816V), second of two lines so named (r207); for remaining activity at 1 µM: read-out: % of control at 1 µM.

Assay [4] addresses T4, panel of 442 kinases (Homo sapiens, UniProt P00519, T315I).
T4 construct: purchased Ambit Biosciences (scanMAXX KINOMEscan)
To be noted: for remaining activity at 1 µM: read-out: % of control at 1 µM; for remaining activity at 10 µM: read-out: % of control at 10 µM.

Assay [5] has as its target T5, panel of 442 kinases (Homo sapiens, UniProt P27361).
T5 construct: purchased Ambit Biosciences (scanMAXX KINOMEscan)
To be noted: ERK1; for remaining activity at 1 µM: read-out: % of control at 1 µM.

Assay [6] deals with T6, panel of 442 kinases (Homo sapiens, UniProt P49137).
T6 construct: purchased Ambit Biosciences (scanMAXX KINOMEscan)
T6 sequence (P49137 whole entry): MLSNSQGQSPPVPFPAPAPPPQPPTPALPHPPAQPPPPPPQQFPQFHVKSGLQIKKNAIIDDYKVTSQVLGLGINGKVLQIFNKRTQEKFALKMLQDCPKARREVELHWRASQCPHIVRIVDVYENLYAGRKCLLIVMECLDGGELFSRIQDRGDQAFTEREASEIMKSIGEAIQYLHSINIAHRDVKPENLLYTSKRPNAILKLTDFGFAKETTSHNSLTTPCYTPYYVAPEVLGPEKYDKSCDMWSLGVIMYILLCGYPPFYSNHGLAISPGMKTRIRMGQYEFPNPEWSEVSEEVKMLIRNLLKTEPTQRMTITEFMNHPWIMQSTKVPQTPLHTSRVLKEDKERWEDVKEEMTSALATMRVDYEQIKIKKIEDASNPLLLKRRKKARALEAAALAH
The note with it: kinase MAPKAPK2; for remaining activity at 1 µM: read-out: % of control at 1 µM.

Assay [7] deals with T7, panel of 442 kinases (Homo sapiens, UniProt Q9HBH9).
T7 construct: purchased Ambit Biosciences (scanMAXX KINOMEscan)
The note with it: kinase MKNK2; for remaining activity at 1 µM: read-out: % of control at 1 µM.

Assay [8] concerns the target T8, panel of 442 kinases (Homo sapiens, UniProt O94768).
T8 construct: purchased Ambit Biosciences (scanMAXX KINOMEscan)
T8 sequence (O94768 1-372): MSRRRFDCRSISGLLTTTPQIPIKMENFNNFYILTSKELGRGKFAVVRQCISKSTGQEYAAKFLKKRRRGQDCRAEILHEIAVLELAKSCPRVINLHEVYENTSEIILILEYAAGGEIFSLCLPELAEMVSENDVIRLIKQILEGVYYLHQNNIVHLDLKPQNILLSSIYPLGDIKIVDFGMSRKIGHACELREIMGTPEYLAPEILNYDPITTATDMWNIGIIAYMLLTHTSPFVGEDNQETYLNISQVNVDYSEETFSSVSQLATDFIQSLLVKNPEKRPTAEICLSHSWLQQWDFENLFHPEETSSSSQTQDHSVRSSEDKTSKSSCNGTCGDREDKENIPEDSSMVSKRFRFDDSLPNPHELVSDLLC
To be noted: DRAK2; for remaining activity at 1 µM: read-out: % of control at 1 µM.

In assay [9] the target is T9, panel of 442 kinases (Homo sapiens, UniProt P42681).
T9 construct: purchased Ambit Biosciences (scanMAXX KINOMEscan)
T9 sequence (P42681 1-527): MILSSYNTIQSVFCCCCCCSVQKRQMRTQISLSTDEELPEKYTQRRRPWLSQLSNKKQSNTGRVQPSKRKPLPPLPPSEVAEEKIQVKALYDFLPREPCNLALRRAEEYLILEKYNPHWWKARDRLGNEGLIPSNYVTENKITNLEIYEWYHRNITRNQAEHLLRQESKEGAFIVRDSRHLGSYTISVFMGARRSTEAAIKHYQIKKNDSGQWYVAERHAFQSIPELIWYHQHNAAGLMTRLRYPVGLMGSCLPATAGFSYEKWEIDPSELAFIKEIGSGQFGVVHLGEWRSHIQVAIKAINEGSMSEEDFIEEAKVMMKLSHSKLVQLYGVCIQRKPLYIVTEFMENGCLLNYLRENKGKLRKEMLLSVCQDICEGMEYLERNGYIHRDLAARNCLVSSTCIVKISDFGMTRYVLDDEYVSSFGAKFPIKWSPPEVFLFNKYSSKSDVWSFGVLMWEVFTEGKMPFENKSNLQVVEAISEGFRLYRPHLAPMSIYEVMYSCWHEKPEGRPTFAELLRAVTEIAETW
To be noted: kinase TXK; for remaining activity at 1 µM: read-out: TXK (% of control at 1 µM).

In assay [10] the target is T10, panel of 442 kinases (Homo sapiens, UniProt P42680).
T10 construct: purchased Ambit Biosciences (scanMAXX KINOMEscan)
T10 sequence (P42680 1-631): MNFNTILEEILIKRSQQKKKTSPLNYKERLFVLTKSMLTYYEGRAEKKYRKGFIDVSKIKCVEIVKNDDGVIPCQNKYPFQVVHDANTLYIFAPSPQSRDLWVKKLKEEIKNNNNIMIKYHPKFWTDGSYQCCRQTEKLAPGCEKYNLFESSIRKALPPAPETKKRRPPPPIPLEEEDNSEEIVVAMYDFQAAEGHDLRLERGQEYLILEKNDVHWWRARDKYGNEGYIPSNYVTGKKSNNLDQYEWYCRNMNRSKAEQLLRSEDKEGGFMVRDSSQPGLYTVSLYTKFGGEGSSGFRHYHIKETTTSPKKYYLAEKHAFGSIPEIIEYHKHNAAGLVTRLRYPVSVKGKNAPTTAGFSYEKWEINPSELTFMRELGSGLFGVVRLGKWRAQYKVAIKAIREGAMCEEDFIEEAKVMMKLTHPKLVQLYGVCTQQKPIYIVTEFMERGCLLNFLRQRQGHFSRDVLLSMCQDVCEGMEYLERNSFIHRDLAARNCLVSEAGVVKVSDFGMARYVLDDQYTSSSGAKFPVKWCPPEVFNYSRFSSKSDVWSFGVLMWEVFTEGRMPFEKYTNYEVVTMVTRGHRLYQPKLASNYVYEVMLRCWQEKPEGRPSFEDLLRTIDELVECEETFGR
The note with it: kinase TEC; for remaining activity at 1 µM: read-out: TEC (% of control at 1 µM).

The target in assay [11] is T11, panel of 442 kinases (Homo sapiens, UniProt Q16288).
T11 construct: purchased Ambit Biosciences (scanMAXX KINOMEscan)
To be noted: kinase TRKC; for remaining activity at 1 µM: read-out: TRKC (% of control at 1 µM).

Assay [12] has as its target T12, panel of 442 kinases (Homo sapiens, UniProt Q96RR4).
T12 construct: purchased Ambit Biosciences (scanMAXX KINOMEscan)
The note with it: CAMKK2; for remaining activity at 1 µM: read-out: % of control at 1 µM.

For assay [13], the target named is T13, panel of 442 kinases (Homo sapiens, UniProt Q16513).
T13 construct: purchased Ambit Biosciences (scanMAXX KINOMEscan)
T13 sequence (Q16513 whole entry): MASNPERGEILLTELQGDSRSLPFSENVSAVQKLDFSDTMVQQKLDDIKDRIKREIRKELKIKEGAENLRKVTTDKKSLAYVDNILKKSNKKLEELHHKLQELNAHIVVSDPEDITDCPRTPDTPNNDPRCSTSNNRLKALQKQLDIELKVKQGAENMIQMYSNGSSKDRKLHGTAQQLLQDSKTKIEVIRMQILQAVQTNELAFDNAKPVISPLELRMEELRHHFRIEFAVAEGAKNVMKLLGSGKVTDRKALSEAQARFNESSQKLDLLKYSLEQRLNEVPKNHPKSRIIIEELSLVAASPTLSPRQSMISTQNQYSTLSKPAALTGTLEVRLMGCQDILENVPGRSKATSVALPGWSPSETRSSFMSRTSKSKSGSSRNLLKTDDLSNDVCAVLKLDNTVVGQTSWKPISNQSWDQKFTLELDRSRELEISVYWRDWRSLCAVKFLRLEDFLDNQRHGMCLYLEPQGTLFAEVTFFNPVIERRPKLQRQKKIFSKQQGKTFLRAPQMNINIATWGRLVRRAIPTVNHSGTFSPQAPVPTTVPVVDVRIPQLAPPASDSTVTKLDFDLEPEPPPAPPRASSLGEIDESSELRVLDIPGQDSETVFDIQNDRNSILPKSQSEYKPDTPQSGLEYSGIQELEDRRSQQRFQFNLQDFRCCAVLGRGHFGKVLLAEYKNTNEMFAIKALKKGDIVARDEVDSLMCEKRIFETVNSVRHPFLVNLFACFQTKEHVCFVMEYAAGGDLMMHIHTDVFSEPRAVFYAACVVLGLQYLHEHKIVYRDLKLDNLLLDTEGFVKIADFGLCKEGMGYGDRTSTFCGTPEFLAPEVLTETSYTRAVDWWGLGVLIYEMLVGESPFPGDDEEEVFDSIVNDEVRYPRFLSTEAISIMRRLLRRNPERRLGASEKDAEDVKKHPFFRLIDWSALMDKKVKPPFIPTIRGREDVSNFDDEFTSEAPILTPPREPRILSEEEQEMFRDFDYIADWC
To be noted: kinase PKN2; for remaining activity at 1 µM: read-out: PKN2 (% of control at 1 µM).

The target in assay [14] is T14, panel of 442 kinases (Homo sapiens, UniProt Q9H0K1).
T14 construct: purchased Ambit Biosciences (scanMAXX KINOMEscan)
T14 sequence (Q9H0K1 whole entry): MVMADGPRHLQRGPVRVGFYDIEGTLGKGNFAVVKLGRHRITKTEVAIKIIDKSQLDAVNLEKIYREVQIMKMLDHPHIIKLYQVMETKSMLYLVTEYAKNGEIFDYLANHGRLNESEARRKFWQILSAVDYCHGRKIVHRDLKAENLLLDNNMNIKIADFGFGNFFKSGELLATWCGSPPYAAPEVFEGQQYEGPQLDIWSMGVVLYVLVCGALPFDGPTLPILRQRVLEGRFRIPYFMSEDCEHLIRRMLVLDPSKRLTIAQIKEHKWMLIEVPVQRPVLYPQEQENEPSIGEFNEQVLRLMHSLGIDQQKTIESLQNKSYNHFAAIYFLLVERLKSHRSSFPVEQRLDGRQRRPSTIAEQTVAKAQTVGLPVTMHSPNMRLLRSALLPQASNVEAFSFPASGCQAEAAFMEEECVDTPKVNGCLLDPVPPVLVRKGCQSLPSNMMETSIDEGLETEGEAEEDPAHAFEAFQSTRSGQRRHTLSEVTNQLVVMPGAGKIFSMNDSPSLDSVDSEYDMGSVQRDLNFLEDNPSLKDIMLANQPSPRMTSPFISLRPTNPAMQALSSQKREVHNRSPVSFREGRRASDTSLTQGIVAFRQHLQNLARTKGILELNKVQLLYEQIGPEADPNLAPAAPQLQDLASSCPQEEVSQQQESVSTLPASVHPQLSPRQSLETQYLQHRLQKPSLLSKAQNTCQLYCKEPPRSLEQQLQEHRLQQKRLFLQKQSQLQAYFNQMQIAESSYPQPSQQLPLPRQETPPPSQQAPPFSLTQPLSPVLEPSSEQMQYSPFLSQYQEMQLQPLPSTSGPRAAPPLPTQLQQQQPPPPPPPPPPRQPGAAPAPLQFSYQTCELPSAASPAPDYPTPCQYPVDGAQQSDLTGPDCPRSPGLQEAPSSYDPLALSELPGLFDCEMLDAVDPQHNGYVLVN
To be noted: kinase SIK2; for remaining activity at 1 µM: read-out: SIK2 (% of control at 1 µM).

The mark [15] stands for this setting: 10 µM, read-out: % of control at 10 µM.

T1 sequence (P10721 26-976 V559D): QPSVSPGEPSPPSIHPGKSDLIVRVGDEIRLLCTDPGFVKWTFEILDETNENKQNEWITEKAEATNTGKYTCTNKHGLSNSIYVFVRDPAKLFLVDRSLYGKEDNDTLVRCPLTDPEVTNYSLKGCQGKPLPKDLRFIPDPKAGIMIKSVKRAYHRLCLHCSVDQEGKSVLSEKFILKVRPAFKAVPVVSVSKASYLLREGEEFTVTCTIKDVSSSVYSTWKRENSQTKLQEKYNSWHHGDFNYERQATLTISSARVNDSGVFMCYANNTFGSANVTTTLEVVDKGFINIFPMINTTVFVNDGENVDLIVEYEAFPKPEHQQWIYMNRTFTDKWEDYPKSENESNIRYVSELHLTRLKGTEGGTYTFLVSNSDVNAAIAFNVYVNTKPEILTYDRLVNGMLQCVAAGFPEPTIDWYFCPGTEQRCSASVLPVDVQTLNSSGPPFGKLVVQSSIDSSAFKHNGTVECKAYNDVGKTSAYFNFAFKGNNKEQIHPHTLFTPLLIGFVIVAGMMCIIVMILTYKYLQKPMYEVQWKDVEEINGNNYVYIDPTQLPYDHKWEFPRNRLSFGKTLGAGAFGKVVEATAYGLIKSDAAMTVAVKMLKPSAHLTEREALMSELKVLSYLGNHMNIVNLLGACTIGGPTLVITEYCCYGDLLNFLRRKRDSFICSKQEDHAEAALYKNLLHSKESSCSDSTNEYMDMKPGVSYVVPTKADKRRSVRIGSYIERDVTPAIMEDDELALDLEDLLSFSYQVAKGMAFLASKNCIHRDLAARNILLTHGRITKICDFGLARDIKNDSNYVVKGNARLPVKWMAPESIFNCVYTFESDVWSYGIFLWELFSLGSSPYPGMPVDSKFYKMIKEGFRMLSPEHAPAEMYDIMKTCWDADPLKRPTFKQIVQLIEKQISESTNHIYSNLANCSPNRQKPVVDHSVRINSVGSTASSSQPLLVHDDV
T3 sequence (P10721 26-976 D816V): as the sequence (P10721 26-976 V559D) above, with D534V, D791V counted along it
T12 sequence (Q96RR4 whole entry): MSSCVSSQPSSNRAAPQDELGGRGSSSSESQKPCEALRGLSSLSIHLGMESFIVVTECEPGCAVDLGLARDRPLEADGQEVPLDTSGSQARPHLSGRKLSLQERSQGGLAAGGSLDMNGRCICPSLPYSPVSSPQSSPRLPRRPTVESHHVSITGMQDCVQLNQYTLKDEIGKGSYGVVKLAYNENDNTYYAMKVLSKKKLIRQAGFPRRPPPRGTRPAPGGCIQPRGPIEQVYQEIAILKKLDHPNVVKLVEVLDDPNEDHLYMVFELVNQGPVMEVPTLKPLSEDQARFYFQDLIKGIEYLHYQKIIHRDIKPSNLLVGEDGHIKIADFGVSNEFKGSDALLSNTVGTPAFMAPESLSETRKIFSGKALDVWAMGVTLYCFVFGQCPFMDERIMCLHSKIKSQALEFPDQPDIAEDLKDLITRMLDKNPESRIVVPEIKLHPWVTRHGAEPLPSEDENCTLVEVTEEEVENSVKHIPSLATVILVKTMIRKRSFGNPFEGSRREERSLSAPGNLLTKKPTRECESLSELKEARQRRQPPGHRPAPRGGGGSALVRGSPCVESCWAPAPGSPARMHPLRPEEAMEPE
T5 sequence (P27361 whole entry): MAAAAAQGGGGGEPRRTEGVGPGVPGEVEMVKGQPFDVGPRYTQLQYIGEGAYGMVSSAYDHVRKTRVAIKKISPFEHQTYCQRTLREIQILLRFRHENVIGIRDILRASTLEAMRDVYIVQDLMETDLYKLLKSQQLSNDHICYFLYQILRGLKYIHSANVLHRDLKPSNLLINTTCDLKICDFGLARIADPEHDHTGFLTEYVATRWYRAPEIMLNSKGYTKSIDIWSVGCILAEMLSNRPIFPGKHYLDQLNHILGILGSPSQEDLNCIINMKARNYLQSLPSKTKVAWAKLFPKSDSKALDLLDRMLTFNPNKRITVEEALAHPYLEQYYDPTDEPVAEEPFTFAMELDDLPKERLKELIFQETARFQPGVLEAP

In the case of `Nc1cc(C(F)(F)F)c(-c2cc(N3CCOCC3)nc(N3CCOCC3)n2)cn1` [Buparlisib], the remaining activity at 1 µM in [1] stood at 100%; in assay [2] it was 100%; in assay [3] it was 100%; in assay [4] (ABL1(T315I)-nonphosphorylated), 94%; in assay [4] (ABL1(T315I)-phosphorylated), 73%; in [5] it was 92%. Further, the remaining activity at 1 µM in [6] is 100%; in assay [7], 90%; in assay [8], 100%; in assay [9], 98%; in assay [10], 87%; in assay [11], 76%. The remaining activity at 1 µM was 100% in [12], 83% in assay [13] and 100% in assay [14]. In addition, the remaining activity at 10 µM came to 66% in [1] (setting [15]); 74% in [2] (setting [15]); 100% in assay [3] (setting [15]); 78% in assay [4] (ABL1(T315I)-nonphosphorylated); 100% in assay [4] (ABL1(T315I)-phosphorylated); 100% in assay [5] (setting [15]). Also, the remaining activity at 10 µM in assay [6] (setting [15]) is 100%; in assay [7] (setting [15]), 80%; in assay [8] (setting [15]), 100%; in assay [9] (10 µM, read-out: TXK (% of control at 10 µM)) it was 89%; in assay [10] (10 µM, read-out: TEC (% of control at 10 µM)), 100%; in assay [11] (10 µM, read-out: TRKC (% of control at 10 µM)), 76%. Further, the remaining activity at 10 µM in [12] (setting [15]) turned out to be 100%; in [13] (10 µM, read-out: PKN2 (% of control at 10 µM)), 100%; in assay [14] (10 µM, read-out: SIK2 (% of control at 10 µM)) it was 93%.
In the case of `Cn1c(=O)n(-c2ccc(C(C)(C)C#N)cc2)c2c3cc(-c4cnc5ccccc5c4)ccc3ncc21` [Dactolisib, 2-methyl-2-[4-(3-methyl-2-oxo-8-quinolin-3-yl-2,3-dihydroimidazo[4,5-c]quinolin-1-yl)-phenyl] propionitrile], the remaining activity at 1 µM in assay [1] was 65%; in assay [2], 76%; in [3] it was 59%; in [4] (ABL1(T315I)-nonphosphorylated) it was 58%; in assay [5], 97%; in assay [6], 92%. The remaining activity at 1 µM amounted to 100% in assay [7]; 68% in [8]; 100% in assay [9]; 96% in assay [10]; 85% in assay [11]; 52% in [12]. In addition, the values for the remaining activity at 1 µM in [13] and in assay [14] were 92% and 82%, respectively.
Turning to `COc1ncc(-c2ccc3nccc(-c4ccnnc4)c3c2)cc1NS(=O)(=O)c1ccc(F)cc1F` [Omipalisib], the remaining activity at 1 µM in assay [1] turned out to be 96%; in assay [2], 91%; in assay [3], 86%; in [4] (ABL1(T315I)-nonphosphorylated) it was 98%; in assay [4] (ABL1(T315I)-phosphorylated), 81%; in assay [5] it was 100%. For the same molecule, the remaining activity at 1 µM was found to be 100% in assay [6]; 98% in assay [7]; 100% in assay [8]; 82% in [9]; 100% in [10]; 100% in assay [11]. Moreover, the figures for the remaining activity at 1 µM in assay [12], in assay [13] and in assay [14] were 71%, 100% and 100%, respectively.
Consider `FC(F)c1nc2ccccc2n1-c1nc(N2CCOCC2)nc(N2CCOCC2)n1` [ZSTK474, 2-(difluoromethyl)-1-[4,6-di(4-morpholinyl)-1,3,5-triazin-2-yl]-1H-benzimidazole], for which the remaining activity at 1 µM stood at 84% in [1]; 68% in assay [2]; 100% in [3]; 50% in assay [4] (ABL1(T315I)-nonphosphorylated); 100% in assay [4] (ABL1(T315I)-phosphorylated); 100% in assay [5]. The remaining activity at 1 µM in [6] was 99%; in assay [7], 100%; in assay [8] it was 86%; in [9], 83%; in assay [10] it was 89%; in assay [11], 100%. Also, the remaining activity at 1 µM is 100% in assay [12], 100% in assay [13] and 78% in assay [14].
